Values of other authors, collected in patent US11612579B2, “Compositions comprising a fatty acid oil mixture and a surfactant, and methods and uses thereof” (PRONOVA BIOPHARMA NORGE AS, priority 2009, dated 2023).
Several values for one entry are separate records, joined by “and”; a condition that tells them apart may be missing. Equal values may be shown once.

Details: commercially-available surfactants

Compound | HLB Value
CCCCCCCCCCCC(=O)OCCOCCO [Diethylene glycol monolaurate] | 6.1
CCCCCCCCCCCCOS(=O)(=O)[O-].[Na+] [Sodium lauryl sulphate] | 40
CCCCCCCCCCCCCCCCCC(=O)OCC(O)CO (centres unmarked) [Glyceryl monostearate] | 3.3 and 3.8
CCCCCCCCCCCCCCCCCC(=O)OCCOC(=O)CCCCCCCCCCCCCCCCC [Ethylene glycol distearate] | 1.5
CCCCCCCCCCCCCCCC[N+](C)(C)C.[Br-] [Cetrimonium bromide] | 23.3

Further lines, results first:

HLB Value | Compound
4.3 | sorbitan monooleate [Span ® 80]
4.7 | sorbitan monostearate [Span ® 60]
6.7 | sorbitan monopalmitate [Span ® 40]
